Among the data in patent US7122554B2, “Carboline derivatives” (Lilly Icos LLC., priority 2001, dated 2006) are IC50 and melting point values, retold here.

pIC50: −log10 of the molar value.

For series [1], the target named is human recombinant PDE5 (Homo sapiens, UniProt O76074). The series is described as follows: Inhibitory effect on cGMP-PDE (PDE5 IC50, one-step assay). It is filed as biochemical. The following applies: human recombinant PDE5, 0.15 μM 8-[H3]-cGMP, 30 minutes incubation. Here is the method: The compounds of structural formula (I) were tested for an ability to inhibit PDE5. The ability of a compound to inhibit PDE5 activity is related to the IC50 value for the compound, i.e., the concentration of inhibitor required for 50% inhibition of enzyme activity. The IC50 value for compounds of structural formula (I) were determined using recombinant human PDE5.
cGMP-PDE activity of compounds of the present invention was measured using a one-step assay adapted from Wells et al., Biochim. Biophys. Acta, 384, 430 (1975). The reaction medium contained 50 mM Tris-HCl, pH 7.5, 5 mM magnesium acetate, 250 μg/ml 5′-Nucleotidase, 1 mM EGTA, and 0.15 μM 8-[H^3]-cGMP. Unless otherwise indicated, the enzyme used was a human recombinant PDE5 (ICOS Corp., Bothell, Wash.).
Compounds of the invention were dissolved in DMSO finally present at 2% in the assay.

As for `O=C(Nc1ccccc1)C(=O)N1CCc2c([nH]c3ccccc23)[C@H]1c1ccc2c(c1)OCO2` [Example 1, (1R)-2-(1-benzo[1,3]dioxol-5-yl-1,3,4,9-tetrahydro-β-carbolin-2-yl)-2-oxo-N-phenylacetamide], in series [1], the negative-log IC50 (pIC50) was 6.78.

Consider `S=C(NCc1ccccc1)N1CCc2c([nH]c3ccccc23)C1c1ccc2c(c1)OCO2` (stereo not drawn) [Example 2a, 1-benzo[1,3]dioxol-5-yl-1,3,4,9-tetrahydro-β-caboline-2-carbothioic acid benzylamide], for which the melting point was determined as 197 °C. For the same compound, in series [1], the pIC50 was 7.29.

`S=C(NCc1ccccc1)N1CCc2c([nH]c3ccccc23)[C@H]1c1ccc2c(c1)OCO2` [Example 2b, (1R)-1-benzo[1,3]dioxol-5-yl-1,3,4,9-tetrahydro-β-carboline-2-carbothioic acid benzylamide] gave a melting point of 205 to 207 °C. Moreover, the pIC50 in series [1] was 7.40.

As to `O=C(NCc1ccccc1)N1CCc2c([nH]c3ccccc23)C1c1ccccc1` (stereo not drawn) [Example 4], the pIC50 in series [1] is 6.10.

With `O=C(Nc1ccccc1)N1CCc2c([nH]c3ccccc23)C1c1ccccc1` (stereo not drawn) [Example 5], in series [1], the pIC50 is 6.40.

Take `O=C(Nc1cccc2ccccc12)N1CCc2c([nH]c3ccccc23)C1c1ccccc1` (stereo not drawn) [Example 6]: the negative logarithm of the IC50 (pIC50) in series [1] was 6.40.

Consider `O=C(NC1CCCCC1)N1CCc2c([nH]c3ccccc23)C1c1ccc2c(c1)OCO2` (stereo not drawn) [Example 7], for which the negative logarithm of the IC50 (pIC50) in series [1] is 6.07.

Consider `C[C@H](NC(=O)N1CCc2c([nH]c3ccccc23)[C@H]1c1ccc2c(c1)OCO2)c1ccccc1` [Example 10, (1R)-benzo[1,3]dioxol-5-yl-1,3,4,9-tetrahydro-β-carboline-2-carboxylic acid (1S)-(phenylethyl)amide], for which the melting point fell in the range of 120 to 121 °C. Moreover, the negative-log IC50 (pIC50) in series [1] was 7.89.

On to `O=C(NC(=O)N1CCc2c([nH]c3ccccc23)[C@H]1c1ccc2c(c1)OCO2)c1ccccc1` [Example 12, N-((1R)-1-benzo[1,3]dioxol-5-yl-1,3,4,9-tetrahydro-β-carboline-2-carbonyl)benzamide], for which the pIC50 in series [1] is 7.31.

On to `O=C(OCc1ccccc1)N1CCc2c([nH]c3ccccc23)C1c1ccc2c(c1)OCO2` (stereo not drawn) [Example 15a, 1-benzo[1,3]dioxol-5-yl-1,3,4,9-tetrahydro-β-carboline-2-carboxylic acid benzyl ester], for which the pIC50 in series [1] was 7.77.

Consider `O=C(OCc1ccccc1)N1CCc2c([nH]c3ccccc23)[C@H]1c1ccc2c(c1)OCO2` [Example 15b, (1R)-1-benzo[1,3]dioxol-5-yl-1,3,4,9-tetrahydro-β-carboline-2-carboxylic acid benzyl ester], for which, in series [1], the negative-log IC50 (pIC50) is 8.05.

In the case of `O=C(C=C1CCCCC1)N1CCc2c([nH]c3ccccc23)[C@H]1c1ccc2c(c1)OCO2` [Example 16], the melting point is 116 to 118 °C. Moreover, the pIC50 in series [1] is 6.68.

As for `O=C(CC(=O)N1CCc2c([nH]c3ccccc23)[C@H]1c1ccc2c(c1)OCO2)c1ccccc1` [Example 17, (1R)-1-(1-benzo[1,3]dioxol-5-yl-1,3,4,9-tetrahydro-β-carbolin-2-yl)-3-phenylpropane-1,3-dione], the pIC50 in series [1] was 7.54.

As for `COC(=O)N1CCc2c([nH]c3ccccc23)C1c1ccccc1` (stereo not drawn) [Example 19], the negative logarithm of the IC50 (pIC50) in series [1] was 9.00.

For the compound `COC(=O)CCCC(=O)N1CCc2c([nH]c3ccccc23)C1c1ccccc1` (stereo not drawn) [Example 20], in series [1], the pIC50 was 9.00.

As to `COc1ccc(C2c3[nH]c4ccccc4c3CCN2C(=O)CCCC(=O)O)cc1Cl` (stereo not drawn) [Example 21], the negative logarithm of the IC50 (pIC50) in series [1] was 6.74.

Take `O=C(O)CCCC(=O)N1CCc2c([nH]c3ccccc23)C1c1ccc2c(c1)OCO2` (stereo not drawn) [Example 22]: the pIC50 in series [1] is 6.82.

As to `S=C(NCc1ccccc1Cl)N1CCc2c([nH]c3ccccc23)[C@H]1c1ccc2c(c1)OCO2` [Example 24, (1R)-benzo[1,3]dioxol-5-yl-1,3,4,9-tetrahydro-β-carboline-2-carbothioic acid 2-chlorobenzylamide], the melting point was 123 to 128 °C. Also, the pIC50 in series [1] was 6.75.

Take `S=C(NCc1ccc(Cl)cc1Cl)N1CCc2c([nH]c3ccccc23)[C@H]1c1ccc2c(c1)OCO2` [Example 25, (1R)-benzo[1,3]dioxol-5-yl-1,3,4,9-tetrahydro-β-carboline-2-carbothioic acid 2,4-dichlorobenzylamide]: the melting point lay in the range of 124 to 127 °C. The pIC50 in series [1] was 6.90.

With `Fc1ccccc1CNC(=S)N1CCc2c([nH]c3ccccc23)[C@H]1c1ccc2c(c1)OCO2` [Example 26], in series [1], the negative-log IC50 (pIC50) is 7.40.

`C[C@H](NC(=S)N1CCc2c([nH]c3ccccc23)[C@H]1c1ccc2c(c1)OCO2)c1ccccc1` [Example 27] had a melting point of 117 to 121 °C. The pIC50 in series [1] was 6.71.

Regarding `O=C(O)c1ccc(CNC(=S)N2CCc3c([nH]c4ccccc34)[C@H]2c2ccc3c(c2)OCO3)cc1` [Example 28, (1R)-4-{[(1-benzo[1,3]dioxol-5-yl-1,3,4,9-tetrahydro-β-carboline-2-carbthiolyl)-amino]methyl}benzoic acid], in series [1], the negative-log IC50 (pIC50) was 7.44.

Regarding `O=C(O)c1cccc(CNC(=S)N2CCc3c([nH]c4ccccc34)[C@H]2c2ccc3c(c2)OCO3)c1` [Example 29, (1R)-3-{[(1-benzo[1,3]dioxol-5-yl-1,3,4,9-tetrahydro-β-carboline-2-carbthiolyl)amino]methyl}benzoic acid], the melting point fell in the range of 218 to 220 °C. Also, in series [1], the negative logarithm of the IC50 (pIC50) is 6.33.

On to `FC(F)(F)c1cc(NC(=S)N2CCc3c([nH]c4ccccc34)[C@H]2c2ccc3c(c2)OCO3)ccc1Cl` [Example 30, (1R)-benzo[1,3]dioxol-5-yl-1,3,4,9-tetrahydro-β-carboline-2-carbothioic acid (4-chloro-3-trifuloromethylphenyl)amide], for which the pIC50 in series [1] is 7.08.

With `FC(F)(F)c1ccccc1NC(=S)N1CCc2c([nH]c3ccccc23)[C@H]1c1ccc2c(c1)OCO2` [Example 31, (1R)-benzo[1,3]dioxol-5-yl-1,3,4,9-tetrahydro-β-carboline-2-carbothioic acid (2-trifluoromethylphenyl)amide], the negative-log IC50 (pIC50) in series [1] was 6.29.

`S=C(NCc1ccc(Cl)cc1)N1CCc2c([nH]c3ccccc23)[C@H]1c1ccc2c(c1)OCO2` [Example 32, (1R)-benzo[1,3]dioxol-5-yl-1,3,4,9-tetrahydro-β-carboline-2-carbothioic acid 4-chlorobenzylamide]: the pIC50 in series [1] is 7.29.

`Fc1cccc(CNC(=S)N2CCc3c([nH]c4ccccc34)[C@H]2c2ccc3c(c2)OCO3)c1` [Example 33, (1R)-benzo[1,3]dioxol-5-yl-1,3,4,9-tetrahydro-β-carboline-2-carbothioic acid 3-fluorobenzylamide]: the melting point was in the range of 179 to 181 °C. In series [1], the negative-log IC50 (pIC50) was 7.12.

As for `S=C(NCc1ccc(Cl)c(Cl)c1)N1CCc2c([nH]c3ccccc23)[C@H]1c1ccc2c(c1)OCO2` [Example 34, (1R)-benzo[1,3]dioxol-5-yl-1,3,4,9-tetrahydro-β-carboline-2-carbothioic acid 3,4-dichlorobenzylamide], the negative logarithm of the IC50 (pIC50) in series [1] is 6.29.

In the case of `Fc1ccc(CNC(=S)N2CCc3c([nH]c4ccccc34)[C@H]2c2ccc3c(c2)OCO3)cc1` [Example 35, (1R)-benzo[1,3]dioxol-5-yl-1,3,4,9-tetrahydro-β-carboline-2-carbothioic acid 4-fluorobenzylamide], the melting point lay in the range of 137 to 139 °C. Further, the negative logarithm of the IC50 (pIC50) in series [1] was 6.91.

Take `S=C(NCc1cccc(Cl)c1)N1CCc2c([nH]c3ccccc23)[C@H]1c1ccc2c(c1)OCO2` [Example 36, (1R)-benzo[1,3]dioxol-5-yl-1,3,4,9-tetrahydro-β-carboline-2-carbothioic acid 3-chlorobenzylamide]: the melting point is 189 to 191 °C. The pIC50 in series [1] was 6.31.

`Cc1ccc(CNC(=S)N2CCc3c([nH]c4ccccc34)[C@H]2c2ccc3c(c2)OCO3)cc1C` [Example 37, (1R)-benzo[1,3]dioxol-5-yl-1,3,4,9-tetrahydro-β-carboline-2-carbothioic acid 3,4-dimethylbenzylamide] displayed a melting point of 138 to 142 °C. The pIC50 in series [1] was 7.52.

In turn, `O=C(NC(=S)N1CCc2c([nH]c3ccccc23)C1c1ccc2c(c1)OCO2)c1ccccc1` (stereo not drawn) [Example 38] had a melting point of 207 to 208 °C. The negative-log IC50 (pIC50) in series [1] is 6.42.

The compound `S=C(NCc1cccc2ccccc12)N1CCc2c([nH]c3ccccc23)[C@H]1c1ccc2c(c1)OCO2` [Example 39, (1R)-1-benzo[1,3]dioxol-5-yl-1,3,4,9-tetrahydro-β-carboline-2-carbothioic acid (naphthalen-1-yl-methyl)amide] showed a melting point of 111 to 113 °C. For the same compound, the pIC50 in series [1] was 6.92.

In turn, `S=C(NCc1ccc2c(c1)OCO2)N1CCc2c([nH]c3ccccc23)[C@H]1c1ccc2c(c1)OCO2` [Example 40, (1R)-1-benzo-[1,3]dioxol-5-yl-1,3,4,9-tetrahydro-β-carboline-2-carbothioic acid (benzo[1,3]dioxol-5-yl-methyl)amide] came in with a melting point of 97 to 100 °C. In series [1], the negative logarithm of the IC50 (pIC50) is 7.25.

As to `O=S(=O)(/C=C/c1ccccc1)N1CCc2c([nH]c3ccccc23)C1c1ccc2c(c1)OCO2` (stereo not drawn) [Example 41a, 1-benzo[1,3]dioxol-5-yl-2-(2-phenylethenesulfonyl)-2,3,4,9-tetrahydro-1H-β-carboline], the melting point fell in the range of 191 to 192 °C. Moreover, the pIC50 in series [1] was 6.17.

For orientation: pIC50 means −log10 of the IC50, conventionally taken in molar units. In general, melting point refers to the temperature, or range, at which the solid turns liquid.
